Results: US20240415858A1, “PROMOTING MYELINATION BY N-ACETYLGLUCOSAMINE AND MODULATION OF N-GLYCAN BRANCHING” (THE REGENTS OF THE UNIVERSITY OF CALIFORNIA, priority 2021, published 2024)
“Also recorded” adds a separate entry of the source.

Assays:
[1] = test system: blasting/activated CD25+CD4+ T cells; assay: Phase 1 trial: N-glycan branching in T cells by L-PHA flow cytometry; type: in vivo, human; settings: for average increase of L-PHA binding in blasting/activated CD25+CD4+ T cells: oral
Description: (§1) Based on its immunomodulatory effects, a FDA approved (IND 122235) dose escalation was carried out, open-label NIH funded Phase 1 mechanistic clinical trial of oral GIcNAc in MS patients (RRMS and PMS) on glatiramer acetate and not in acute relapse, with the primary endpoint an increase in N-glycan branching in T cells. This endpoint was used as a surrogate marker for GIcNAc's biological activity. Three doses were evaluated: 1 g TID (3 g total, n=13), 2 g TID (6 g total, n=18) and 4 g TID (12 g total, n=16). Subjects had baseline blood drawn weekly four times, then started on oral GIcNAc with 4 weekly blood draws (FIG. 8A).
To assess the primary endpoint (increased N-glycan branching in T cells), flow cytometry was used to assess binding of the plant lectin L-PHA (Phaseolus vulgaris leukoagglutinin) to T cells. L-PHA is a highly sensitive and specific measure of N-glycan branching. L-PHA binding was increased in blasting/activated CD25^+CD4^+ T cells in the 12 g (p=0.0065) and 6 g (p=0.037) but not the 3 g cohort, with average increases of 7%, 3% and 1.7% respectively (FIGS. 8H and 8I); the latter indicative of a dose response.

[2] = test system: MS patients; assay: Open-label Phase 1 trial of oral GIcNAc in MS: safety, tolerability, relapse rate; type: in vivo, human
Description: as §1
The annualized relapse rate on GIcNAc in the combined group was 0.277 (from a single relapse in a subject on the 6 g dose).

[3] = test system: MS patients; assay: Phase 1 trial: serum neurofilament light chain (Nfl), single molecule array immunoassay; type: in vivo, human; settings: subjects with elevated baseline Nfl from all three dose groups, week 3 and 4 of treatment, p=0.0045, n=18
Description: Comparison of the change in serum Nfl concentration in subjects with elevated baseline levels (combined from the 3 g, 6 g, and 12 g cohorts) showing change from pre-GIcNAc to during weeks 3-4 of GIcNAc treatment. The four data points pre-GIcNAc (black dots) and the two data points from week 3 and 4 during GIcNAc treatment are averaged, normalized to pre-GIcNAc levels and shown as black and red dots connected by black lines for each subject, respectively. Nfl was measured by an ultra sensitive single molecule array immunoassay. P-value by 1-tailed Wilcoxon matched-pairs signed rank test.
Neurons exclusively express Nfl and release it when damaged, with high serum Nfl levels (>˜40 pg/ml) serving as a robust biomarker for ongoing neuro-axonal damage in MS. This analysis was done blinded by Jens Kuhle (University of Basel), who has published extensively on Nfl in MS.

[4] = test system: C57BL/6 mice with cuprizone induced demyelination; assay: Cuprizone induced demyelination / re-myelination model (rotarod, immunofluorescence, electron microscopy); type: in vivo, mouse
Description: Cuprizone at 0.2% induces demyelination in the corpus callosum by 3 weeks, with maximum demyelination at 5-6 weeks. 8-week-old C57BL/6 mice purchased from Jackson Laboratories or 8-week old Mgat5^+/− C57BL/6 mice were treated with 0.2% Cuprizone (Sigma) mixed into milled rodent chow for 6 weeks for the active phase treatment and 5 weeks for the recovery treatment. During active phase treatment, GIcNAc (1 mg/mL) in drinking water or just drinking water (control) was provided for the last 3 weeks of Cuprizone treatment. For the recovery phase treatment, GIcNAc in drinking water or control was provided after Cuprizone treatment had been stopped. Mice were anesthetized and underwent cardiac perfusion with 4% paraformaldehyde in PBS or 4% paraformaldehyde plus 0.5% glutaraldehyde in Sodium cacodylate buffer for immunofluorescence or electron microscopic analysis respectively. Brains were then fixed overnight in perfusion solution
One day prior to Cuprizone treatment, mice were trained on the rotarod by allowing them to run three 5-minute trials at a constant 30 rotations per minute (RPM). Mice then underwent weekly testing during Cuprizone and GIcNAc treatment on an accelerating rotarod starting at 4 rpm increasing to 40 rpm over 5 minutes. Latency for mice to fall was recorded. If a mouse was not running on the rotarod by holding on for 3 turns, this was considered a fall. For the active phase treatment, one trial was run every week. For the recovery phase treatment, 3 trials were run for each mouse each week and latencies were averaged. As expected with Cuprizone treatment performance degraded as treatment progressed.
For neural stem cell (NSC) immunofluorescence, whole neurospheres were seeded onto laminin-coated coverslips (Neuvitro) in proliferation medium. After 24 hours, proliferation media was removed and replaced with differentiation medium (same components as proliferation medium but excluding EGF, bFGF, and heparin) to induce differentiation. For analysis of mouse brains, brains were incubated in 30% sucrose for at least 72 hours, embedded in OCT (Tissue-tek), frozen for at least 48 hours at −80° C., and then cut at 40 microns on a cryostat. Multiple sections from −1 bregma to −2.5 bregma were then stained with antibodies for MBP (1:100; MAB386, Millipore), Olig2 (1:200; AB9610, Millipore), CC1 (1:100; OP90, Millipore), degraded MBP (1:200, AB5864, Millipore) and Amyloid Precursor Protein (APP, 1:200; clone 22C11). After overnight incubation with primary antibody, tissues were washed and incubated with secondary antibodies: goat anti-rat Alexa-fluor 488 (1:200, Thermofisher), goat anti-rabbit TxRd (1:200, Thermofisher). APP is a marker for neuro-axonal damage while co-staining for CC1 and Olig2 are markers of mature oligodendrocytes. In order to examine the amount of myelin, slices were incubated in Fluoromyelin (1:300; F34651, Thermofisher) for 45 minutes. Images were acquired on a Keyence fluorescence microscope. Mean fluorescence intensity of the medial corpus callosum was measured using ImageJ.
Three mice from each treatment group (control and GIcNAc) were selected randomly for EM analysis (before other investigations were performed). Portions of these brains from 0 to −1 bregma were rinsed in 0.1 M cacodylate buffer overnight and again for 15 min. the next day. 2×1 mm blocks of the corpus callosum were dissected out and post-fixed with 1% osmium tetroxide in 0.1 M cacodylate buffer for 1 hour, rinsed in ddH20, dehydrated in increasing serial dilutions of ethanol (70%, 85%, 95%, 100%×2) for 10 min each, put in propylene oxide (intermediate solvent) for 2×10 min, incubated in propylene oxide/Spurr's resin (1:1 mix) for 1 h, and then in Spurr's resin overnight. The blocks were put in a fresh change of resin in flat embedding molds the next day and polymerized overnight at 60° C. The blocks were sectioned at 1 μm using a Leica Ultracut UCT ultramicrotome. […]

[5] = GIcNAc only after cuprizone stopped, wildtype 2 weeks, Mgat5+/- 1 or 4 weeks
[6] = Mgat5+/- mice, 4 weeks GIcNAc after 5 weeks cuprizone
[7] = wildtype mice, GIcNAc during final 3 weeks of 6-week cuprizone exposure

## CC(=O)N[C@H]1C(O)O[C@H](CO)[C@@H](O)[C@@H]1O (stereo partly drawn) [GIcNAc, N-acetylglucosamine]
[1]; oral GIcNAc, data not shown
  L-PHA binding in activated CD25+CD8+ T cells, resting CD25-CD4+ and CD25-CD8+ T cells and activated/resting CD19+ B cells: no increase
[1]; 3 g cohort (not significant)
  average increase of L-PHA binding in blasting/activated CD25+CD4+ T cells: 1.7%
[1]; 6 g cohort (p=0.037)
  average increase of L-PHA binding in blasting/activated CD25+CD4+ T cells: 3%
[1]; 12 g cohort (p=0.0065)
  average increase of L-PHA binding in blasting/activated CD25+CD4+ T cells: 7%
[1]; post-GIcNAc, 6 g and 12 g cohorts
  L-PHA binding to blasting/activated CD25+CD4+ T cells during the washout period vs pre-GIcNAc or during GIcNAc: no significant difference
[2]; combined group, a single relapse in a subject on the 6 g dose
  annualized relapse rate on GIcNAc: 0.277
[2]; oral, 12 g per day (4 g TID)
  subjects with mild GI symptoms (gas, bloating, loose stool): ~50%
[2]; oral, all doses
  discontinuation due to GI symptoms: No subject discontinued
[2]; oral, all doses (3 g, 6 g, 12 g per day), 4 weeks
  safety: safe
[2]; oral, the other doses (3 g, 6 g per day)
  subjects with mild GI symptoms (gas, bloating, loose stool): not
[3]
  serum Nfl levels: significantly reduced; also recorded: reduces
[4]; [5]
  degraded MBP (dMBP)/myelin degeneration in the corpus callosum: reducing
  levels of MBP in the corpus callosum: enhanced
  levels of myelin (fluoromyelin) in the corpus callosum: enhanced
  mature oligodendrocytes (CC1 Olig2+) in the corpus callosum: enhanced
[4]; [6]
  axon loss (electron microscopy): reducing
  degree of myelination (g-ratio, electron microscopy): enhanced
  number of degenerating and dystrophic/swollen axons (electron microscopy): reducing
  number of myelinated axons (electron microscopy): enhanced
  number of paranodes (electron microscopy): enhanced
[4]; Mgat5+/- mice, recovery phase
  increase in fluoromyelin staining, 4 versus 1 week of GIcNAc treatment: ~2 fold
[4]; wildtype mice, GIcNAc during final 3 weeks of 6-week cuprizone (0.2%) exposure
  motor function (rotarod fall latency): prevented loss of motor function
[4]; [7]
  MBP levels in the corpus callosum: increasing
  axonal damage (accumulation of amyloid precursor protein, APP) in the corpus callosum: reducing
